The values that follow come from ChEMBL document CHEMBL4373714, “Absolute Configuration and Biological Activities of Meroterpenoids from an Endophytic Fungus of Lycium barbarum” (J Nat Prod, 2019).

Structures are written as SMILES. pIC50: −log10 of the molar value. Converted amounts (≈) assume the structure as drawn. Structures can show the parent of a compound that is named as a salt.

Assay [1] has as its system NCI-H226. Nature of the assay: Antiproliferative activity against human NCI-H226 cells assessed as reduction in cell viability at 10 uM after 24 hrs by CCK8 assay relative to control. Type of assay: functional. As to conditions: NCI-H226, 24 h. For orientation: Tetrazolium dyes change colour on reduction, which living cells bring about.
For assay [2], the system named is MDA-MB-231. Nature of the assay: Antiproliferative activity against human MDA-MB-231 cells assessed as reduction in cell viability at 10 uM after 24 hrs by CCK8 assay relative to control. The note with it: MDA-MB-231, 24 h. It is filed as functional.
The subject of assay [3] is NCI-H226. Kind of assay: Antiproliferative activity against human NCI-H226 cells assessed as reduction in cell viability after 24 hrs by CCK8 assay. It is filed as functional, cell-based. As to conditions: NCI-H226, 24 h.
For assay [4], the system named is MDA-MB-231. Nature of the assay: Antiproliferative activity against human MDA-MB-231 cells assessed as reduction in cell viability after 24 hrs by CCK8 assay. It is filed as functional, cell-based. As to conditions: MDA-MB-231, 24 h.
Another assay relates to Bacillus subtilis. Nature of the assay: Antibacterial activity against Bacillus subtilis assessed as inhibition of bacterial growth after 24 hrs by microdilution method. It is filed as functional.
The next assay concerns Clostridium perfringens. Nature of the assay: Antibacterial activity against Clostridium perfringens assessed as inhibition of bacterial growth after 24 hrs by microdilution method. Type of assay: functional. Background: In broth dilution the organism is exposed to a series of concentrations in liquid medium.
A further assay concerns Pseudomonas viridiflava. Nature of the assay: Antibacterial activity against Pseudomonas viridiflava assessed as inhibition of bacterial growth after 24 hrs by microdilution method. Type of assay: functional.
The next assay deals with Staphylococcus aureus. Nature of the assay: Antibacterial activity against Staphylococcus aureus assessed as inhibition of bacterial growth after 24 hrs by microdilution method. Type of assay: functional.
In the next assay the test system is Escherichia coli. Kind of assay: Antibacterial activity against Escherichia coli assessed as inhibition of bacterial growth after 24 hrs by microdilution method. It is filed as functional.

Broadly, the inhibition is the percentage by which the read-out fell short of the control. As for `CC[C@H](C)C(=O)[C@@H](C)C1=C(OC)C(=O)C2=C(O[C@]3(C)CC[C@H]4O[C@@H](C(C)(C)O)CC[C@]4(C)[C@H]3C2)C1=O`, the inhibition at 10 µM in the assay on NCI-H226 [1] and in the assay on MDA-MB-231 [2] was below 50% in each case.
As a reminder, the pIC50 is the IC50 on a negative log10 scale, so that one unit is a factor of ten. As for `CC[C@H](C)C(=O)[C@@H](C)C1=C(OC)C(=O)C2=C(O[C@]3(C)CC[C@H]4O[C@@H](C(C)(C)O)CC[C@]4(C)[C@H]3[C@@H]2O)C1=O`, the negative-log IC50 (pIC50) in the assay on NCI-H226 [3] is below 5.00; with MDA-MB-231 [4] it was 5.02.
For `C/C=C(\C)C(=O)[C@@H](C)c1cc(O)c2c(c1O)O[C@]1(C)CC[C@H]3O[C@@H](C(C)(C)O)CC[C@]3(C)[C@H]1[C@@H]2O`, the pIC50 in the assay with NCI-H226 [3] is 5.26; in the assay with MDA-MB-231 [4] it was 5.17.
Turning to `CC[C@H](C)C(=O)[C@@H](C)c1cc(O)c2c(c1O)O[C@]1(C)CC[C@H]3O[C@@H](C(C)(C)O)CC[C@]3(C)[C@H]1[C@@H]2O`, the inhibition at 10 µM with NCI-H226 [1] and with MDA-MB-231 [2] was below 50% each time.
As for `CC[C@@H](C)C(=O)[C@@H](C)c1cc(O)c2c(c1O)O[C@]1(C)CC[C@H]3O[C@@H](C(C)(C)O)CC[C@]3(C)[C@H]1C2=O`, the inhibition at 10 µM in the assay on NCI-H226 [1] and in the assay with MDA-MB-231 [2] was below 50% each time.
As for `C/C=C(\C)[C@@H](OC(C)=O)[C@@H](C)C1=CC(=O)C2=C(O[C@]3(C)CC[C@H]4O[C@@H](C(C)(C)O)CC[C@]4(C)C3=C2)C1=O`, the negative logarithm of the IC50 (pIC50) in the assay with NCI-H226 [3] is below 5.00; in the assay with MDA-MB-231 [4] it was 5.25.
`CCC(C)C(=O)c1coc2c3c(c(O)cc12)[C@@H](O)[C@@H]1[C@@]2(C)CC[C@H](C(C)(C)O)O[C@@H]2CC[C@@]1(C)O3` (stereo not given in full): the inhibition at 10 µM in the assay with NCI-H226 [1] and in the assay with MDA-MB-231 [2] was below 50% in each case.
`CC[C@@H](C)[C@@H](OC(C)=O)[C@@H](C)c1cc(O)c2c(c1O)O[C@]1(C)CC[C@H]3O[C@@H](C(C)(C)O)CC[C@]3(C)[C@H]1C2=O`: the inhibition at 10 µM in the assay with NCI-H226 [1] and in the assay on MDA-MB-231 [2] was below 50% each time.
Take `C/C=C(\C)C(=O)[C@@H](C)C1=C(OC)C(=O)C2=C(O[C@]3(C)CC[C@H]4O[C@@H](C(C)(C)O)CC[C@]4(C)[C@H]3[C@@H]2O)C1=O`: the pIC50 with NCI-H226 [3] is below 5.00; in the assay with MDA-MB-231 [4], 5.12.
In the case of `CC[C@H](C)[C@@H](OC(C)=O)[C@@H](C)C1=C(N)C(=O)C2=C(O[C@]3(C)CC[C@H]4O[C@@H](C(C)(C)O)CC[C@]4(C)[C@H]3[C@@H]2O)C1=O`, the inhibition at 10 µM in the assay on NCI-H226 [1] and in the assay with MDA-MB-231 [2] was below 50% each time.
As to `C/C=C(\C)C(=O)[C@@H](C)C1=CC(=O)C2=C(O[C@]3(C)CC[C@H]4O[C@@H](C(C)(C)O)CC[C@]4(C)[C@H]3[C@@H]2O)C1=O`, the pIC50 with NCI-H226 [3] was below 5.00; with MDA-MB-231 [4], 5.07.
For the molecule `CC[C@H](C)[C@@H](OC(C)=O)[C@@H](C)C1=CC(=O)C2=C(O[C@]3(C)CC[C@H]4O[C@@H](C(C)(C)O)CC[C@]4(C)[C@H]3[C@@H]2O)C1=O` [COCHLIOQUINONE A], the inhibition at 10 µM in the assay on NCI-H226 [1] and in the assay on MDA-MB-231 [2] was below 50% each time.
The MIC is the smallest concentration in the dilution series that meets the test's criterion for growth inhibition. Regarding `CC[C@H](C)C(=O)[C@@H](C)C1=CC(=O)C2=C(O[C@]3(C)CC[C@H]4O[C@@H](C(C)(C)O)CC[C@]4(C)[C@H]3C2)C1=O` [COCHLIOQUINONE B], the minimum inhibitory concentration (MIC) with Bacillus subtilis, in the assay with Clostridium perfringens and with Pseudomonas viridiflava was 26 µM (≈ 12.3 µg/mL) throughout. In addition, the inhibition at 10 µM with NCI-H226 [1] and in the assay with MDA-MB-231 [2] was below 50% each time.
`CC[C@H](C)C(=O)[C@@H](C)C1=CC(=O)C2=C(O[C@]3(C)CC[C@H]4O[C@@H](C(C)(C)O)CC[C@]4(C)[C@H]3[C@@H]2O)C1=O` [COCHLIOQUINONE C]: the MIC in the assay on Bacillus subtilis, with Clostridium perfringens and in the assay on Pseudomonas viridiflava was 26 µM (≈ 12.7 µg/mL) each time. For the same molecule, the inhibition at 10 µM in the assay on NCI-H226 [1] and in the assay on MDA-MB-231 [2] was below 50% each time.
On to `C/C=C(\C)C(=O)[C@@H](C)C1=CC(=O)C2=C(O[C@]3(C)CC[C@H]4O[C@@H](C(C)(C)O)CC[C@]4(C)[C@H]3C2)C1=O` [COCHLIOQUINONE D], for which the negative-log IC50 (pIC50) in the assay on NCI-H226 [3] is 5.16; in the assay on MDA-MB-231 [4] it was 5.15.
The matching figures for `COc1cccc2c1C(=O)c1c(O)c3c(c(O)c1C2=O)C[C@@](O)(C(=O)CO)C[C@@H]3O[C@H]1C[C@H](N)[C@H](O)[C@H](C)O1` [DOXORUBICIN HYDROCHLORIDE]: 6.52 and 6.52.
As for `CC[C@H](C)[C@@H](OC(C)=O)[C@@H](C)c1cc(O)c2c(c1O)O[C@]1(C)CC[C@H]3O[C@@H](C(C)(C)O)CC[C@]3(C)[C@H]1C2=O` [ISOCOCHLIOQUINONE A], the inhibition at 10 µM in the assay on NCI-H226 [1] and with MDA-MB-231 [2] was below 50% each time.
Take `CC[C@H](C)C(=O)[C@@H](C)c1cc(O)c2c(c1O)O[C@]1(C)CC[C@H]3O[C@@H](C(C)(C)O)CC[C@]3(C)[C@H]1C2=O` [ISOCOCHLIOQUINONE C]: the MIC with Bacillus subtilis, in the assay with Clostridium perfringens and with Pseudomonas viridiflava was 26 µM (≈ 12.7 µg/mL) each time. For the same molecule, the inhibition at 10 µM with NCI-H226 [1] and in the assay with MDA-MB-231 [2] was below 50% throughout.
Turning to `CN(C)[C@@H]1C(O)=C(C(N)=O)C(=O)[C@@]2(O)C(O)=C3C(=O)c4c(O)cccc4[C@@](C)(O)[C@H]3C[C@@H]12` [TETRACYCLINE], the MIC in the assay on Staphylococcus aureus, with Escherichia coli, in the assay on Bacillus subtilis, with Clostridium perfringens and with Pseudomonas viridiflava was 3.5 µM (≈ 1.56 µg/mL) in each case.
